Source: PubChem BioAssay AID2060903 (Molecular Pharmacology Branch, DTP, NCI, 2025)

Tested on: 377384-186-R-J1-PDC complex spheroid viability
Test: Anticancer human tumor 377384-186-R-J1-PDC patient-derived pancreatic carcinoma cell line growth inhibition [RAS]
Conditions: for IC50: curve of first compound; for viability, T/C: stronger effect = lower value
Outline: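 Multi-cell-type spheroids: tumor cells plus HUVEC endothelial cells and mesenchymal stem cells. RAS-pathway inhibitors were combined with targeted agents, each dosed in half-log steps down from clinical Cmax, or from 10 microM when Cmax was unknown.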
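Note: spheroids exposed to compounds for seven days before readout.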

## CCc1c2c(nc3ccc(O)cc13)-c1cc3c(c(=O)n1C2)COC(=O)[C@]3(O)CC + CCn1c(-c2cc(N3CCN(C)CC3)cnc2C(C)OC)c2c3cc(ccc31)-c1csc(n1)CC(NC(=O)C1CC1C)C(=O)N1CCCC(N1)C(=O)OCC(C)(C)C2
Second compound 0.000949 µM
  IC50: < 949 pM
Second compound 0.003 µM
  IC50: < 949 pM
Second compound 0.00949 µM
  IC50: < 949 pM
Second compound 0.03 µM
  IC50: < 949 pM
Second compound 0.0949 µM
  IC50: < 949 pM
Second compound 0.3 µM
  IC50: < 949 pM
Second compound 0.000949 µM, first compound 0.000949 µM
  viability, T/C: 33.1%
Second compound 0.000949 µM, first compound 0.003 µM
  viability, T/C: 21.3%
Second compound 0.000949 µM, first compound 0.00949 µM
  viability, T/C: 10.2%
Second compound 0.000949 µM, first compound 0.03 µM
  viability, T/C: 5.07%
Second compound 0.000949 µM, first compound 0.0949 µM
  viability, T/C: 2.53%
Second compound 0.000949 µM, first compound 0.3 µM
  viability, T/C: 1.79%
Second compound 0.003 µM, first compound 0.000949 µM
  viability, T/C: 20.8%
Second compound 0.003 µM, first compound 0.003 µM
  viability, T/C: 7.71%
Second compound 0.003 µM, first compound 0.00949 µM
  viability, T/C: 4.82%
Second compound 0.003 µM, first compound 0.03 µM
  viability, T/C: 3.05%
Second compound 0.003 µM, first compound 0.0949 µM
  viability, T/C: 2.03%
Second compound 0.003 µM, first compound 0.3 µM
  viability, T/C: 1.92%
Second compound 0.00949 µM, first compound 0.000949 µM
  viability, T/C: 4.34%
Second compound 0.00949 µM, first compound 0.003 µM
  viability, T/C: 3.24%
Second compound 0.00949 µM, first compound 0.00949 µM
  viability, T/C: 2.6%
Second compound 0.00949 µM, first compound 0.03 µM
  viability, T/C: 2.11%
Second compound 0.00949 µM, first compound 0.0949 µM
  viability, T/C: 2.15%
Second compound 0.00949 µM, first compound 0.3 µM
  viability, T/C: 1.25%
Second compound 0.03 µM, first compound 0.000949 µM
  viability, T/C: 2.43%
Second compound 0.03 µM, first compound 0.003 µM
  viability, T/C: 2.09%
Second compound 0.03 µM, first compound 0.00949 µM
  viability, T/C: 2.04%
Second compound 0.03 µM, first compound 0.03 µM
  viability, T/C: 2.06%
Second compound 0.03 µM, first compound 0.0949 µM
  viability, T/C: 1.98%
Second compound 0.03 µM, first compound 0.3 µM
  viability, T/C: 1.26%
Second compound 0.0949 µM, first compound 0.000949 µM
  viability, T/C: 1.98%
Second compound 0.0949 µM, first compound 0.003 µM
  viability, T/C: 1.94%
Second compound 0.0949 µM, first compound 0.00949 µM
  viability, T/C: 1.8%
Second compound 0.0949 µM, first compound 0.03 µM
  viability, T/C: 1.65%
Second compound 0.0949 µM, first compound 0.0949 µM
  viability, T/C: 1.4%
Second compound 0.0949 µM, first compound 0.3 µM
  viability, T/C: 0.95%
Second compound 0.3 µM, first compound 0.000949 µM
  viability, T/C: 1.39%
Second compound 0.3 µM, first compound 0.003 µM
  viability, T/C: 1.76%
Second compound 0.3 µM, first compound 0.00949 µM
  viability, T/C: 1.84%
Second compound 0.3 µM, first compound 0.03 µM
  viability, T/C: 1.68%
Second compound 0.3 µM, first compound 0.0949 µM
  viability, T/C: 1.29%
Second compound 0.3 µM, first compound 0.3 µM
  viability, T/C: 0.71%

## CC(Nc1ccc2c(c1)OCCn1cc(N3C(=O)OCC3C(F)F)nc1-2)C(N)=O (stereo unspecified) + CCn1c(-c2cc(N3CCN(C)CC3)cnc2C(C)OC)c2c3cc(ccc31)-c1csc(n1)CC(NC(=O)C1CC1C)C(=O)N1CCCC(N1)C(=O)OCC(C)(C)C2
Second compound 0.000949 µM
  IC50: < 31600 pM
Second compound 0.003 µM
  IC50: < 31600 pM
Second compound 0.00949 µM
  IC50: < 31600 pM
Second compound 0.03 µM
  IC50: < 31600 pM
Second compound 0.0949 µM
  IC50: < 31600 pM
Second compound 0.3 µM
  IC50: < 31600 pM
Second compound 0.000949 µM, first compound 0.0316 µM
  viability, T/C: 38.5%
Second compound 0.000949 µM, first compound 0.1 µM
  viability, T/C: 27%
Second compound 0.000949 µM, first compound 0.316 µM
  viability, T/C: 20.7%
Second compound 0.000949 µM, first compound 1 µM
  viability, T/C: 14.9%
Second compound 0.000949 µM, first compound 3.16 µM
  viability, T/C: 15.3%
Second compound 0.000949 µM, first compound 10 µM
  viability, T/C: 10%
Second compound 0.003 µM, first compound 0.0316 µM
  viability, T/C: 16.6%
Second compound 0.003 µM, first compound 0.1 µM
  viability, T/C: 13.9%
Second compound 0.003 µM, first compound 0.316 µM
  viability, T/C: 6.73%
Second compound 0.003 µM, first compound 1 µM
  viability, T/C: 6.02%
Second compound 0.003 µM, first compound 3.16 µM
  viability, T/C: 4.06%
Second compound 0.003 µM, first compound 10 µM
  viability, T/C: 4.35%
Second compound 0.00949 µM, first compound 0.0316 µM
  viability, T/C: 4.34%
Second compound 0.00949 µM, first compound 0.1 µM
  viability, T/C: 2.53%
Second compound 0.00949 µM, first compound 0.316 µM
  viability, T/C: 3.61%
Second compound 0.00949 µM, first compound 1 µM
  viability, T/C: 1.94%
Second compound 0.00949 µM, first compound 3.16 µM
  viability, T/C: 1.23%
Second compound 0.00949 µM, first compound 10 µM
  viability, T/C: 0.59%
Second compound 0.03 µM, first compound 0.0316 µM
  viability, T/C: 1.88%
Second compound 0.03 µM, first compound 0.1 µM
  viability, T/C: 1.58%
Second compound 0.03 µM, first compound 0.316 µM
  viability, T/C: 0.84%
Second compound 0.03 µM, first compound 1 µM
  viability, T/C: 0.45%
Second compound 0.03 µM, first compound 3.16 µM
  viability, T/C: 0.4%
Second compound 0.03 µM, first compound 10 µM
  viability, T/C: 0.18%
Second compound 0.0949 µM, first compound 0.0316 µM
  viability, T/C: 1.11%
Second compound 0.0949 µM, first compound 0.1 µM
  viability, T/C: 0.55%
Second compound 0.0949 µM, first compound 0.316 µM
  viability, T/C: 0.59%
Second compound 0.0949 µM, first compound 1 µM
  viability, T/C: 0.36%
Second compound 0.0949 µM, first compound 3.16 µM
  viability, T/C: 0.09%
Second compound 0.0949 µM, first compound 10 µM
  viability, T/C: 0.09%
Second compound 0.3 µM, first compound 0.0316 µM
  viability, T/C: 1.13%
Second compound 0.3 µM, first compound 0.1 µM
  viability, T/C: 0.5%
Second compound 0.3 µM, first compound 0.316 µM
  viability, T/C: 0.4%
Second compound 0.3 µM, first compound 1 µM
  viability, T/C: 0.29%
Second compound 0.3 µM, first compound 3.16 µM
  viability, T/C: 0.21%
Second compound 0.3 µM, first compound 10 µM
  viability, T/C: 0.14%

## CCc1c2c(nc3ccc(O)cc13)-c1cc3c(c(=O)n1C2)COC(=O)[C@]3(O)CC + C#Cc1c(F)ccc2cc(O)cc(-c3ncc4c(N5CC6CCC(C5)N6)nc(OCC56CCCN5CC(F)C6)nc4c3F)c12
Second compound 0.0316 µM
  IC50: < 949 pM
Second compound 0.1 µM
  IC50: < 949 pM
Second compound 0.316 µM
  IC50: < 949 pM
Second compound 1 µM
  IC50: < 949 pM
Second compound 3.16 µM
  IC50: < 949 pM
Second compound 10 µM
  IC50: < 949 pM
Second compound 0.0316 µM, first compound 0.000949 µM
  viability, T/C: 19.9%
Second compound 0.0316 µM, first compound 0.003 µM
  viability, T/C: 11.3%
Second compound 0.0316 µM, first compound 0.00949 µM
  viability, T/C: 6.54%
Second compound 0.0316 µM, first compound 0.03 µM
  viability, T/C: 4.38%
Second compound 0.0316 µM, first compound 0.0949 µM
  viability, T/C: 1.63%
Second compound 0.0316 µM, first compound 0.3 µM
  viability, T/C: 1.45%
Second compound 0.1 µM, first compound 0.000949 µM
  viability, T/C: 10.2%
Second compound 0.1 µM, first compound 0.003 µM
  viability, T/C: 5.47%
Second compound 0.1 µM, first compound 0.00949 µM
  viability, T/C: 3.3%
Second compound 0.1 µM, first compound 0.03 µM
  viability, T/C: 2.38%
Second compound 0.1 µM, first compound 0.0949 µM
  viability, T/C: 1.62%
Second compound 0.1 µM, first compound 0.3 µM
  viability, T/C: 1.48%
Second compound 0.316 µM, first compound 0.000949 µM
  viability, T/C: 4.45%
Second compound 0.316 µM, first compound 0.003 µM
  viability, T/C: 3.34%
Second compound 0.316 µM, first compound 0.00949 µM
  viability, T/C: 2.87%
Second compound 0.316 µM, first compound 0.03 µM
  viability, T/C: 1.65%
Second compound 0.316 µM, first compound 0.0949 µM
  viability, T/C: 1.51%
Second compound 0.316 µM, first compound 0.3 µM
  viability, T/C: 1.36%
Second compound 1 µM, first compound 0.000949 µM
  viability, T/C: 3.89%
Second compound 1 µM, first compound 0.003 µM
  viability, T/C: 2.04%
Second compound 1 µM, first compound 0.00949 µM
  viability, T/C: 2.4%
Second compound 1 µM, first compound 0.03 µM
  viability, T/C: 1.31%
Second compound 1 µM, first compound 0.0949 µM
  viability, T/C: 1.14%
Second compound 1 µM, first compound 0.3 µM
  viability, T/C: 1.05%
Second compound 3.16 µM, first compound 0.000949 µM
  viability, T/C: 1.66%
Second compound 3.16 µM, first compound 0.003 µM
  viability, T/C: 2.07%
Second compound 3.16 µM, first compound 0.00949 µM
  viability, T/C: 2.02%
Second compound 3.16 µM, first compound 0.03 µM
  viability, T/C: 1.73%
Second compound 3.16 µM, first compound 0.0949 µM
  viability, T/C: 1.46%
Second compound 3.16 µM, first compound 0.3 µM
  viability, T/C: 0.91%
Second compound 10 µM, first compound 0.000949 µM
  viability, T/C: 1.73%
Second compound 10 µM, first compound 0.003 µM
  viability, T/C: 0.98%
Second compound 10 µM, first compound 0.00949 µM
  viability, T/C: 1.39%
Second compound 10 µM, first compound 0.03 µM
  viability, T/C: 1.15%
Second compound 10 µM, first compound 0.0949 µM
  viability, T/C: 0.97%
Second compound 10 µM, first compound 0.3 µM
  viability, T/C: 0.48%
